Molecular target: T1, rat metabotropic glutamate receptor 5 (mGluR5) (Rattus norvegicus, UniProt P31424)
T1 construct: expressed in transfected cells; host or cells: HEK 293
Assay: Calcium mobilization assay (FLIPR) for negative or positive allosteric activity, HEK 293 cells
Format: cell-based
Conditions: HEK293, negative allosteric modulation, inhibition of EC80 glutamate response; read-out: FLIPR maximum inhibition
In short: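 HEK 293 cells stably expressing rat mGluR5, Fluo-4 loaded in HEPES-buffered HBSS pH 7.4 with 0.1% BSA and probenecid. Compound added with EC20 (potentiation) or EC80 (inhibition) glutamate; fluorescence read over 3 min at room temperature. Basal-subtracted maximum fluorescence change fitted to Hill equation.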

T1 sequence (P31424 21-1171 isoform P31424-2 limits assumed): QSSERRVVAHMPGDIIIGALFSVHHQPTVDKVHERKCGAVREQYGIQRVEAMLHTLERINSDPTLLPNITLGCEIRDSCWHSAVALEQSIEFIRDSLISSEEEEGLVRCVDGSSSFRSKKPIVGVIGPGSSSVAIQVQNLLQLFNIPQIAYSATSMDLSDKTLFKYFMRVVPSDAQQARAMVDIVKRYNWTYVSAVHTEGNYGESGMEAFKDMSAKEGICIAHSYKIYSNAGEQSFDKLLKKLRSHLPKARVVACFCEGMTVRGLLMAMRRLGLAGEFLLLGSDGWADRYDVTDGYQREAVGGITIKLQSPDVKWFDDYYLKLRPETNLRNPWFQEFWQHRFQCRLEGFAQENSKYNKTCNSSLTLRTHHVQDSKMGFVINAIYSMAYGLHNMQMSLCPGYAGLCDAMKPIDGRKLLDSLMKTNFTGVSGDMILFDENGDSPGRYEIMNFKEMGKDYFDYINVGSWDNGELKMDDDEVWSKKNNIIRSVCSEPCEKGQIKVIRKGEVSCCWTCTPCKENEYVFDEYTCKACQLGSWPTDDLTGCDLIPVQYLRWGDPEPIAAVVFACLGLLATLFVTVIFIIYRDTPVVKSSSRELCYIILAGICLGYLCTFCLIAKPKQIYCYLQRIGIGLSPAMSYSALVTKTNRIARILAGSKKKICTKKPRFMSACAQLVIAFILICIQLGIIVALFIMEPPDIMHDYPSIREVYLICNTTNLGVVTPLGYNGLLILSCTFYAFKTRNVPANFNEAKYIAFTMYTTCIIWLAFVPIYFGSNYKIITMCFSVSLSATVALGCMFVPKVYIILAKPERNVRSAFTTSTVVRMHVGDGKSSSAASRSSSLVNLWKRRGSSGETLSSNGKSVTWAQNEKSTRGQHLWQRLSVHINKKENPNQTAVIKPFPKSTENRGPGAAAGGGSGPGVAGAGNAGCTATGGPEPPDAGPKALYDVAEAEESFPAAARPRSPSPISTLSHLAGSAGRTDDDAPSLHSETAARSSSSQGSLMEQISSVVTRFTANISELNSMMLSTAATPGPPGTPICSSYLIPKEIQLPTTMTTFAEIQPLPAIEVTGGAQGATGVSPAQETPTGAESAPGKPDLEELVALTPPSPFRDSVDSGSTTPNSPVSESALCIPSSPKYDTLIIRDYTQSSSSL

| SMILES | Emax [%] |
| --- | --- |
| Cc1cccc(C(=O)NC23CC4CC(C2)CC(NC(=O)c2cncc(C)n2)(C4)C3)n1 [Example 21, 6-Methyl-pyrazine-2-carboxylic acid {3-[(6-methyl-pyridine-2-carbonyl)-amino]-adamantan-1-yl}-amide] | 63 to 99 |
| Cc1cncc(C(=O)NC23CC4CC(C2)CC(NC(=O)c2nccc(C(F)(F)F)n2)(C4)C3)n1 [Example 181, 4-Trifluoromethyl-pyrimidine-2-carboxylic acid {3-[(6-methyl-pyrazine-2-carbonyl)-amino]-adamantan-1-yl}-amide] | 63 to 99 |
| O=C(NC12CC3CC(C1)CC(NC(=O)c1nccc(C(F)(F)F)n1)(C3)C2)c1ccccn1 [Example 113, 4-Trifluoromethyl-pyrimidine-2-carboxylic acid {3-[(pyridine-2-carbonyl)-amino]-adamantan-1-yl}-amide] | 70 to 99 |
| Cc1ccnc(C(=O)NC23CC4CC(C2)CC(NC(=O)c2cccc(C)n2)(C4)C3)c1 [Example 28, 4-Methyl-pyridine-2-carboxylic acid {3-[(6-methyl-pyridine-2-carbonyl)-amino]-adamantan-1-yl}-amide] | 63 to 99 |
| Cc1cncc(C(=O)NC23CC4CC(CC(NC(=O)c5cc(Br)ccn5)(C4)C2)C3)n1 [Example 176, 6-Methyl-pyrazine-2-carboxylic acid {3-[(4-bromo-pyridine-2-carbonyl)-amino]-adamantan-1-yl}-amide] | 63 to 99 |
| Cc1ccnc(C(=O)NC23CC4CC(C2)CC(NC(=O)c2cc(C)ccn2)(C4)C3)c1 [Example 11, N,N′-(1,3-Adamantylene)bis(4-methyl-pyridine-2-carboxamide)] | 63 to 99 |
| Cc1cccc(C(=O)NC23CC4CC(CC(NC(=O)c5ccn6ccnc6c5)(C4)C2)C3)n1 [Example 51, Imidazo[1,2-a]pyridine-7-carboxylic acid {3-[(6-methyl-pyridine-2-carbonyl)-amino]-adamantan-1-yl}-amide] | 63 to 99 |
| Cc1cncc(C(=O)NC23CC4CC(C2)CC(NC(=O)c2cncc(C)n2)(C4)C3)c1 [Example 165, 6-Methyl-pyrazine-2-carboxylic acid {3-[(5-methyl-pyridine-3-carbonyl)-amino]-adamantan-1-yl}-amide] | 63 to 99 |
| N#Cc1cccc(C(=O)NC23CC4CC(C2)CC(NC(=O)c2cccc(C#N)c2)(C4)C3)c1 [Example 5, N,N′-(1,3-adamantylene)bis(3-cyano-benzamide)] | 90 to 99 |
| O=C(NC12CC3CC(C1)CC(NC(=O)c1cnccn1)(C3)C2)c1ccnc(Br)c1 [Example 186, Pyrazine-2-carboxylic acid {3-[(2-bromo-pyridine-4-carbonyl)-amino]-adamantan-1-yl}-amide] | 63 to 99 |
| COCCNc1cccc(C(=O)NC23CC4CC(CC(NC(=O)c5cccc(C)n5)(C4)C2)C3)n1 [Example 235] | 63 to 99 |
| NC(=O)[C@@H]1CCCN1c1cccc(C(=O)NC23CC4CC(CC(NC(=O)c5ccccn5)(C4)C2)C3)n1 [Example 230, 6-((S)-2-Carbamoyl-pyrrolidin-1-yl)-pyridine-2-carboxylic acid {3-[(pyridine-2-carbonyl)-amino]-adamantan-1-yl}-amide] | 63 to 99 |
| Cc1cncc(C(=O)NC23CC4CC(C2)CC(NC(=O)c2ccnc(C)n2)(C4)C3)n1 [Example 173, 2-Methyl-pyrimidine-4-carboxylic acid {3-[(6-methyl-pyrazine-2-carbonyl)-amino]-adamantan-1-yl}-amide] | 63 to 99 |
| O=C(NC12CC3CC(C1)CC(NC(=O)c1cccc(N4CCC(O)CC4)n1)(C3)C2)c1ccccn1 [Example 200, 4-Hydroxy-3,4,5,6-ttrahydro-2H-[1,2′]bipyridinyl-6′-carboxylic acid {3-[(pyridine-2-carbonyl)-amino]-adamantan-1-yl}-amide] | 63 to 99 |
| Cc1cccc(C(=O)NC23CC4CC(C2)CC(NC(=O)c2cccc(C)c2)(C4)C3)c1 [Example 16, N,N′-(1,3-adamantylene)bis(3-menthylbenzamide)] | 63 to 99 |
| O=C(NC12CC3CC(C1)CC(NC(=O)c1nccc(C(F)(F)F)n1)(C3)C2)c1ccncn1 [Example 196, 4-Trifluoromethyl-pyrimidine-2-carboxylic acid {3-[(pyrimidine-4-carbonyl)-amino]-adamantan-1-yl}-amide] | 63 to 99 |
| O=C(NC12CC3CC(C1)CC(NC(=O)c1cn4ccccc4n1)(C3)C2)c1ccccn1 [Example 88, Imidazo[1,2-a]pyridine-2-carboxylic acid {3-[(pyridine-2-carbonyl)-amino]-adamantan-1-yl}-amide] | 63 to 99 |

| SMILES | Emax [%] |
| --- | --- |
| Cc1cccc(C(=O)NC23CC4CC(C2)CC(NC(=O)c2cccc(N5CCC(O)CC5)n2)(C4)C3)n1 [Example 206, 4-Hydroxy-3,4,5,6-tetrahydro-2H-[1,2′]bipyridinyl-6′-carboxylic acid{3-[(6-methyl-pyridine-2-carbonyl)-amino]-adamantan-1-yl}-amide] | 63 to 99 |
| Cc1cccc(C(=O)NC23CC4CC(C2)CC(NC(=O)c2cccc(NCCCO)n2)(C4)C3)n1 [Example 210, 6-(3-Hydroxy-propylamino)-pyridine-2-carboxylic acid {3-[(6-methyl-pyridine-2-carbonyl)-amino]-adamantan-1-yl}-amide] | 63 to 99 |
| O=C(NC12CC3CC(C1)CC(NC(=O)c1cccc(N4CCC[C@@H]4CO)n1)(C3)C2)c1cccc(F)c1 [Example 250, 6-((R)-2-Hydroxymethyl-pyrrolidin-1-yl)-pyridine-2-carboxylic acid [3-(3-fluoro-benzoylamino)-adamantan-1-yl]-amide] | 63 to 99 |
| Cn1ccc(C(=O)NC23CC4CC(CC(NC(=O)c5cccc(F)c5)(C4)C2)C3)n1 [Example 97, 1-Methyl-1H-pyrazole-3-carboxylic acid [3-(3-fluoro-benzoylamino)-adamantan-1-yl]-amide] | 63 to 99 |
| COc1cccc(C(=O)NC23CC4CC(CC(NC(=O)c5cncc(C)n5)(C4)C2)C3)n1 [Example 151, 6-Methyl-pyrazine-2-carboxylic acid {3-[(6-methoxy-pyridine-2-carbonyl)-amino]-adamantan-1-yl}-amide] | 70 to 99 |
| Cc1nc(C(=O)NC23CC4CC(CC(NC(=O)c5ccccn5)(C4)C2)C3)cs1 [Example 110, Pyridine-2-carboxylic acid {3-[(2-methyl-thiazole-4-carbonyl)-amino]-adamantan-1-yl)-amide] | 70 to 99 |
| Cc1cccc(C(=O)NC23CC4CC(C2)CC(NC(=O)c2cccc(C(N)=O)n2)(C4)C3)n1 [Example 133, Pyridine-2,6-dicarboxylic acid 2-amide 6-({3-[(6-methyl-pyridine-2-carbonyl)-amino]-adamantan-1-yl}-amide)] | 70 to 99 |
| Cc1cccc(C(=O)NC23CC4CC(CC(NC(=O)c5ccc6ocnc6c5)(C4)C2)C3)n1 [Example 122, Benzoxazole-5-carboxylic acid {3-[(6-methyl-pyridine-2-carbonyl)-amino]-adamantan-1-yl}-amide] | 70 to 99 |
| COCCN(C)c1cccc(C(=O)NC23CC4CC(CC(NC(=O)c5cccc(F)c5)(C4)C2)C3)n1 [Example 246, 6-[(2-Methoxy-ethyl)-methyl-amino]-pyridine-2-carboxylic acid [3-(3-fluoro-benzoylamino)-adamantan-1-yl]-amide] | 63 to 99 |
| Cc1cccc(C(=O)NC23CC4CC(C2)CC(NC(=O)c2cccc(N5CCC[C@H]5CO)n2)(C4)C3)n1 [Example 237, 6-((S)-2-Hydroxymethyl-pyrrolidin-1-yl)-pyridine-2-carboxylic acid {3-[(6-methyl-pyridine-2-carbonyl)-amino]-adamantan-1-yl}-amide] | 63 to 99 |
| O=C(NC12CC3CC(C1)CC(NC(=O)c1ccccn1)(C3)C2)c1ccc2nccn2c1 [Example 89, Imidazo[1,2-a]pyridine-6-carboxylic acid {3-[(pyridine-2-carbonyl)-amino]-adamantan-1-yl}-amide] | 63 to 99 |
| O=C(NC12CC3CC(C1)CC(NC(=O)c1cccc(Cl)c1)(C3)C2)c1cccc(Cl)c1 [Example 3, N,N′-(1,3-adamantylene)bis(3-chloro-benzamide)] | 90 to 99 |
| Cc1cncc(C(=O)NC23CC4CC(C2)CC(NC(=O)c2ncccn2)(C4)C3)n1 [Example 172, Pyrimidine-2-carboxylic acid {3-[(6-methyl-pyrazine-2-carbonyl)-amino]-adamantan-1-yl}-amide] | 63 to 99 |
| Cc1ccn2cc(C(=O)NC34CC5CC(CC(NC(=O)c6cccc(C)n6)(C5)C3)C4)nc2c1 [Example 56, 7-Methyl-imidazo[1,2-a]pyridine-2-carboxylic acid {3-[(6-methyl-pyridine-2-carbonyl)-amino]-adamantan-1-yl}-amide] | 63 to 99 |
| O=C(NC12CC3CC(C1)CC(NC(=O)c1cccc(F)c1)(C3)C2)c1cccc(F)c1 [Example 15, N,N′-(1,3-adamantylene)bis(3-fluorobenzamide)] | 63 to 99 |
| Cc1cncc(C(=O)NC23CC4CC(CC(NC(=O)c5ccnc(Br)c5)(C4)C2)C3)n1 [Example 178, 6-Methyl-pyrazine-2-carboxylic acid {3-[(2-bromo-pyridine-4-carbonyl)-amino]-adamantan-1-yl}-amide] | 63 to 99 |
| Cc1cccc(C(=O)NC23CC4CC(C2)CC(NC(=O)c2cc(C)nc(C)n2)(C4)C3)n1 [Example 118, 2,6-Dimethyl-pyrimidine-4-carboxylic acid {3-[(6-methyl-pyridine-2-carbonyl)-amino]-adamantan-1-yl}-amide] | 70 to 99 |

Same assay, conditions: positive modulation, increase in EC20 glutamate response

| SMILES | EC50 [nM] | maximum modulation [%] |
| --- | --- | --- |
| Cc1cncc(C(=O)NC23CC4CC(CC(NC(=O)c5cc(-c6ccc(F)cc6)ncn5)(C4)C2)C3)n1 [Example 256, 6-(4-Fluoro-phenyl)-pyimidine-4-carboxylic acid {3-[(6-methyl-pyrazine-2-carbonyl)-aminpo]-adamantan-1-yl}-amide] | 300 | 170 |

Reference: patent US8716284B2, “Adamantyl diamide derivatives and uses of same” (H. Lundbeck A/S, priority 2008, dated 2014)
